Results: patent US20240390396A1 (priority 2021, published 2024)
Where “and” joins values, the source holds several entries; their conditions need not be identical. Identical values can stand only once. Like-named read-outs stand apart in the source and are kept apart here.

Columns and labels:
RAW 264.7 macrophages = test: Nitric oxide (NO) secretion by LPS-activated macrophages (Griess reagent); assay type: cell-based; conditions: for effect of ECS receptor antagonists alone on NO secretion: 24 h (FIG. 5B)
Description: NO secretion was determined by measuring the amount of nitrite, using a Griess reagent (Promega) according to manufacturer's protocol. Briefly, 50 μl of supernatant was added to 96-well plate, followed by 50 μl sulphanilamide and 50 μl N−1-napthylethylenediamine dihydrochloride (NED). The optical densities were quantified using a multi-well spectrophotometer, and nitrite concentrations were estimated using a standard nitrite curve. Results were calculated as the percentage of control cultures.
The poor bioavailability of CBD may hamper its effectiveness as an anti-inflammatory drug. To test whether antagonists of the ECS may potentiate the anti-inflammatory effect of CBD, the inventors used the RAW 264.7 macrophages as a model system for inflammation. Exposure of cells to bacterial lipopolysaccharide (LPS) initiates a signal transduction cascade that leads to increased production of nitrite oxide (NO), secretion of pro-inflammatory cytokines, and acquisition of enhanced bactericidal activity.
First, the inventors studied the response of LPS-activated RAW 264.7 cells to CBD. Cells were cultured with LPS, with/without CBD at 0.63-5 μM concentrations for 24 hrs. Supernatants were harvested for measuring NO by spectrophotometry using the Greiss reagent. […] To test whether antagonists of the ECS can modify the anti-inflammatory activity of CBD, the inventors further exposed the cells to LPS, CBD, ECS antagonists (detailed in Table 2), and their combinations. Two distinct CB2 antagonists (AM630 and COR170) were tested, as CB2 is known to be involved in the regulation of inflammation.

MDA-MB-231 cells = conditions: 24 h
MCF7 cells = assay type: cell-based; conditions: 24 h; cannabis containing 4 μM CBD; 32 μM capsazepine; 400 μM capsaicin; 5 μM thapsigargin; alone or combined
T47D cells = assay type: cell-based; conditions: 24 h; cannabis containing 4 μM CBD; 32 μM capsazepine; 400 μM capsaicin; 5 μM thapsigargin; alone or combined
MDA-MB-468 cells = assay type: cell-based; conditions: 24 h; 1:2 dilution of the original doses: cannabis containing 2 μM CBD; 16 μM capsazepine; capsaicin and thapsigargin diluted 1:2 from 400 μM and 5 μM; alone or combined
[1] = cannabis containing 4 μM CBD, 400 μM capsaicin, 5 μM thapsigargin, alone or combined

## C=C(C)[C@@H]1CCC(C)=C[C@H]1c1c(O)cc(CCCCC)cc1O [CBD, cannabidiol]
RAW 264.7 macrophages; 24 h, CBD 0.63-5 μM (FIG. 5A)
  NO secretion, dose response: reduced NO secretion in a dose dependent manner
RAW 264.7 macrophages; Mus musculus, RAW264.7, 24 h, 2.5 μM CBD, with or without 10 μM capsazepine, read-out: NO secretion, % of control cells treated with vehicle (DMSO)
  activity at 2.5 µM: 6 ± 5%
MDA-MB-231 cells; 2.5 μM pure CBD, with or without 32 μM capsazepine (FIG. 1D)
  cell survival: 72±13%

## CCC(=O)NC[C@H](Cc1ccc(OCCc2nc(-c3ccccc3)oc2C)cc1)N/C(C)=C\C(=O)c1ccc(C(F)(F)F)cc1 [GW6471]
RAW 264.7 macrophages
  effect of ECS receptor antagonists alone on NO secretion: mild effect on NO secretion

## COc1cc(CNC(=O)CCCC/C=C/C(C)C)ccc1O [capsaicin]
MCF7 cells
  cell survival: 19±9%
T47D cells
  cell survival: 39±11%
MDA-MB-468 cells
  cell survival: 60±11% and 62±9%
MDA-MB-231 cells; [1]
  cell survival: 34±25%

## Oc1cc2c(cc1O)CN(C(=S)NCCc1ccc(Cl)cc1)CCC2 [capsazepine]
MCF7 cells
  cell survival: 40±7%
T47D cells
  cell survival: 37±21%
MDA-MB-468 cells
  cell survival: 80±9%
RAW 264.7 macrophages
  effect of ECS receptor antagonists alone on NO secretion: mild effect on NO secretion
MDA-MB-231 cells; co-treatment with CBD-enriched cannabis (FIG. 1B)
  effect of ECS receptor antagonist on cytotoxic activity of cannabis: enhanced the cytotoxic effect of cannabis

## C/C=C(/C)C(=O)O[C@H]1C(C)=C2[C@H]([C@@H]1OC(=O)CCCCCCC)[C@@](C)(OC(C)=O)C[C@H](OC(=O)CCC)[C@@]1(O)[C@H]2OC(=O)[C@@]1(C)O [thapsigargin]
MCF7 cells
  cell survival: 24±6%
T47D cells
  cell survival: 72±7%
MDA-MB-231 cells; [1]
  cell survival: 34±23%
